Data set [1] concerns HIV-1 Ba-L. Kind of data set: HIV-1 MAGI assay, Ba-L (CCR5 / M-tropic). Format: cell-based. The protocol: (§1) Bayesian statistical models were constructed using known CXCR4 and CCR5 active compounds from literature, and these models were used to virtually screen 5 million compounds in the Aldrich Marketplace Select library. The screen yielded 14 compounds of interest that were then tested for their anti-HIV activity for both tropisms in MAGI assay. Two compounds (FIG. 1, compounds 1 and 2) were active against both T and M tropic forms of HIV with IC50 values of ˜20 μM. These initial hits were followed-up by a second round of virtual screening based on similarity and sub-structure searching. Another 24 compounds were purchased from the same database and tested. […] This compound was then subjected to a series of biological evaluations to determine activity profile and confirm mechanism of action.

The test system of data set [2] is HIV-1 IIIB. Kind of data set: HIV-1 MAGI assay, IIIB (CXCR4 / T-tropic). Format: cell-based. Here is the method:
as §1

The subject of another data set is m7CCR5. In words: STD-NMR binding epitope study, m7CCR5. The following applies: 1 mM compound, 10 μM m7CCR5. The protocol: (§2) Saturation Transfer Difference Spectroscopy (STD) was used to study the interactions between m7CCR5, HIV-1 reverse transcriptase, CXCR4, and compound 2 disclosed herein. Brandt et al., J Biol Chem. 2002, 277(19):17291-9. […] An on-resonance spectrum is recorded where m7CCR5 is selectively saturated giving rise to compound signals intensities.
(§3) The difference of off-resonance from the on-resonance spectrum results in the STD spectrum indicating proton that are in close contact to the protein surface. Non-binding protons cancelled out. The signal intensities can be quantified indicating the relative distance of the proton. Normalizing the measured STD intensities against the most intense can be expressed as percentages.
STD binding epitope studies of compound 2 interacting with m7CCR5 (isolated, bacterially-expressed CCR5 construct) is shown in FIG. 2B. […] 100 mM HEPES, 150 mM NaCl, pH=7) in the absence of protein. c) STD NMR spectrum of 1 mM compound 2 in the presence of 10 μM m7CCR5 resolubilized in DDM/DOPC bicelle buffer. d) STDD spectrum of compound 2 binding to m7CCR5 obtained by subtracting (b) from (c). e) STDD binding epitope of compound 2 complexed to m7CCR5 obtained by integrating signals from (d).

For a further data set, the target named is CXCR4 (Homo sapiens, UniProt P61073). In words: STD-NMR binding epitope study, CXCR4 in CHO membrane extracts. Conditions: 1 mM compound, 30% CXCR4-expressing CHO membrane extracts. The protocol: as §2, §3
CXCR4, sequence (P61073 whole entry): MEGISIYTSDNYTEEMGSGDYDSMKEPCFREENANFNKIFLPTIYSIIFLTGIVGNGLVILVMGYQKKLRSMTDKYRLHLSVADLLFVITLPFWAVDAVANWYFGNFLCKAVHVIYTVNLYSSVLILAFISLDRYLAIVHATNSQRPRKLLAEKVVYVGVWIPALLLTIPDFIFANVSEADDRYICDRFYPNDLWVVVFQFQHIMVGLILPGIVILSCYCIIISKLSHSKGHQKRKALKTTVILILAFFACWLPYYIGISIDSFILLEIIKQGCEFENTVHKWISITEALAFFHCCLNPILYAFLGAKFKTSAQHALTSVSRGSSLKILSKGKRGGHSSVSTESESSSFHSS
STD binding epitope studes of compound 2 interacting with CXCR4 obtained from Chinese Hamster Ovary (CHO) membrane extracts as shown in FIG. 2C.

Data set [3] addresses T1, HIV-1 reverse transcriptase (Human immunodeficiency virus type 1 group M subtype B, UniProt P03366). In words: STD-NMR binding epitope study, HIV-1 reverse transcriptase. The following applies: 1 mM compound, 30 ng/ml HIV reverse transcriptase. Here is the method: as §2, §3
Spectra were collected on a 600 MHz Varian equipped with a triple-resonance cryoprobe, and STD spectra were collected with 512 scans at an on-resonance frequency of +0.5 ppm. Panel a) is a ^1H NMR spectrum of compound 2 in 100% deuterated phosphate buffered saline (PBS, pH=7.4). b) STD NMR spectrum of compound 2 in PBS in the absence of protein. c) STD NMR spectrum of 1 mM compound 2 in the presence of 30 ng/ml HIV reverse transcriptase (CalBioChem). d) Binding epitope of compound 2 binding to HIV-RT obtained by integrating the signals from (c).

Another data set is described as follows: MAGI toxicity. The following applies: human, MAGI cells.
The nature of a further data set: PBMC toxicity. The class given is cell-based. Conditions: read-out: PBMC - Toxicity TC50.
The subject of another data set is wild type virus. In words: organism not typed. The class given is cell-based. Conditions: read-out: Multi-cycle EC50 (WT).
The target of data set [4] is T1, HIV-1 reverse transcriptase. In words: biochemical. Format: biochemical.
Data set [5] deals with HIV-1 Ba-L. In words: PBMC anti-HIV-1 assay, Ba-L (CCR5). Format: cell-based. Conditions: Human immunodeficiency virus 1, BAL.
Another data set can be described thus: in vitro. Format: cell-based. The following applies: human.
Data set [6] addresses T2, CCR5 (Homo sapiens, UniProt P51681).
T2 construct: expressed in transfected cells; host or cells: HeLa-C14
Kind of data set: 125I-MIP-1β displacement radio-ligand competition assay. Format: binding.

In data set [7] the test system is HIV-2 strain that utilized CXCR4 for entry. In words: PBMC HIV-2 inhibition assay. Format: cell-based. The source says: Compounds 4 inhibited this HIV-2 strain in PBMC cells in support of the CXCR4-based viral entry inhibition mechanism.
In a further data set the test system is VSV-G pseudovirus. Kind of data set: microbe, parasite or virus in culture. The class given is cell-based.
In data set [8] the test system is HIV-1 IIIB. Kind of data set: PBMC anti-HIV-1 assay, IIIB (CXCR4). Format: cell-based. Conditions: Human immunodeficiency virus 1, IIIB, read-out: PBMC - HIV-1HIB (CXCR4) IC50.
In data set [9] the target is T2, CCR5. In words: HeLa-C14:JRFL CD4-dependent cell-cell fusion assay. The class given is cell-based. The source says: Cell-cell fusion assays measure specifically co-receptor mediated inhibition of gp120-induced fusion in the absence of other viral machinery, and these assays were used to explore the CCR5- and CXCR4-specific antiviral activity. A cell-cell fusion assay was constructed to simulate HIV-1 entry in the absence of other viral machinery. The assay measured fusion of effector cells expressing the JRFL envelope (CCR5-tropic/CD4 dependent) with HeLa-C14 target cells (expressing CD4, CCR5, and CXCR4) using a luciferase readout (FIG. 5A).

Data set [10] deals with NNRTI-resistant viral strain containing the K103N/Y181C mutations. The class given is cell-based.
Setting [11] is: Human immunodeficiency virus 1, BAL, MAGI, value stated for both tropisms, read-out: IC50 against M tropic HIV in MAGI assay.
The mark [12] stands for this setting: Human immunodeficiency virus 1, IIIB, MAGI, value stated for both tropisms, read-out: IC50 against T tropic HIV in MAGI assay.

T2 sequence (P51681 whole entry): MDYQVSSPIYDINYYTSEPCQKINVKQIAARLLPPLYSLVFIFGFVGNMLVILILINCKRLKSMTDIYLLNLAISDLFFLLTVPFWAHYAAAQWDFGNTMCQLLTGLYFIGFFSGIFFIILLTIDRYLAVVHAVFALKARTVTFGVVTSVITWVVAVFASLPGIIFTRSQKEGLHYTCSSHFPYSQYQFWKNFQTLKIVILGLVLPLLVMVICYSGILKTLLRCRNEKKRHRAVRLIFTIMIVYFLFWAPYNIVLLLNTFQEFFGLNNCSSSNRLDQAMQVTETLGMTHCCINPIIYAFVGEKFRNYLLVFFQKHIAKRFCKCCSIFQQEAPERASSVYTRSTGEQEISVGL

The compound “4-((4-(4-benzyl-5-methyl-1H-pyrazol-3-yl)piperidin-1-yl)methyl)-3-chloropyridine” registered a CC50 in the data set on MAGI of 164 µM. Besides, the IC50 was determined as 4.2 µM in the data set with HIV-1 Ba-L [1] (table of synthesized compounds, read-out: R5-IC50) and 3.1 µM with HIV-1 IIIB [2] (table of synthesized compounds, read-out: X4-IC50).

For the compound `c1ccc(Cc2c[nH]nc2C2CCN(Cc3ccccn3)CC2)cc1` [Compound 2], in the data set on m7CCR5, the “interaction with m7CCR5 (STD NMR)” value is listed as “interacts”. Besides, the “interaction with CXCR4 (STD NMR)” value at CXCR4 is “interacts”. For the same compound, the half-maximal inhibitory concentration (IC50) with HIV-1 Ba-L [1] (setting [11]) and with HIV-1 IIIB [2] (setting [12]) was approximately 20 µM each time. Also, the “interaction with HIV-1 reverse transcriptase (STD NMR)” value in data set [3] was “interacts”.

With `c1ccc(Cc2cn[nH]c2C2CCN(Cc3ccncc3)CC2)cc1` [Compound 4, 4-((4-(4-benzyl-1H-pyrazol-3-yl)piperidin-1-yl)methyl)pyridine], the CC50 in the data set “MAGI toxicity” (MAGI -Toxicity TC50) was more than 300 µM; in the data set “MAGI toxicity” (TC50, table of synthesized compounds), more than 100 µM; in the data set “PBMC toxicity”, more than 100 µM; in the data set “in vitro”, more than 200 µM. Also, the EC50 in the data set with wild type virus is 0.9 µM; in the data set on VSV-G pseudovirus (Pseudovirus), 1.3 µM. For the same compound, in [4] (in words), the “inhibition of isolated HIV-1 reverse transcriptase” value is “inhibited”. In addition, the IC50 is 9 µM in [4] (read-out: Isolated HIV-RT Inhibition IC50); 2.3 µM in the data set with HIV-1 Ba-L [5]; 31 µM in data set [7] (Human immunodeficiency virus 2, PBMC); 17 µM in the data set on HIV-1 Ba-L [1] (Ba-L, M-tropic, read-out: HIV-1 MAGI IC50 Ba-L); 0.8 to 3.8 µM with HIV-1 Ba-L [1] (setting [11]); 3.8 µM with HIV-1 Ba-L [1] (Human immunodeficiency virus 1, BAL, Table 3, read-out: MAGI Assay IC50 CCR5). Also, the IC50 is 3.8 µM in the data set with HIV-1 Ba-L [1] (Human immunodeficiency virus 1, BAL, read-out: MAGI - HIV-1Ba-L (CCR5) IC50); 3.75 µM in the data set on HIV-1 Ba-L [1] (Human immunodeficiency virus 1, BAL, table of synthesized compounds, read-out: R5-IC50); 0.8 µM in the data set with HIV-1 IIIB [2] (Human immunodeficiency virus 1, IIIB, MAGI, Table 3, read-out: MAGI Assay IC50 CXCR4); 0.8 µM in the data set on HIV-1 IIIB [2] (Human immunodeficiency virus 1, IIIB, MAGI, read-out: MAGI - HIV-1HIB (CXCR4) IC50); 0.78 µM in the data set with HIV-1 IIIB [2] (Human immunodeficiency virus 1, IIIB, MAGI, table of synthesized compounds, read-out: X4-IC50); 0.8 to 3.8 µM in the data set with HIV-1 IIIB [2] (setting [12]). The IC50 with HIV-1 IIIB [2] (IIIB, T-tropic, read-out: HIV-1 MAGI IC50 IIIB) came to 25 µM; with HIV-1 IIIB [8], 2.3 µM; against CCR5 [9], 36 µM. For the same compound, the “125I-MIP-1β Displacement” value is on record as 38% at 100 μM/ at CCR5 [6] (at 100 μM) and 88% at 1 mM on CCR5 [6] (at 1 mM). On CCR5 [6] (in words), the “displacement of 125I-MIP1β chemokine ligand from the receptor” value is “displaced”. Besides, the “inhibition of HIV-2 strain in PBMC cells” value in data set [7] (in words) was “inhibited”. Besides, the “inhibition of VSV-G pseudovirus” value in the data set with VSV-G pseudovirus (in words) is “inhibited”. Besides, the “inhibition of JRFL envelope / HeLa-C14 cell-cell fusion” value against CCR5 [9] (luciferase readout, in words) was “inhibited fusion”.

Consider `O=C1Nc2ccc(Cl)cc2[C@@](C#CC2CC2)(C(F)(F)F)O1` [efavirenz], for which the “loss of antiviral activity against K103N/Y181C mutant compared to wild type” value in [10] was 70 fold.

By IC50 is commonly meant the point on the concentration scale where inhibition reaches its midpoint. What is called EC50 is the concentration giving half of the maximal effect.
